In US20180078615A1, “USE OF CCL2 TO INHIBIT ABNORMAL UTERINE BLEEDING” (UNIVERSITY OF SOUTH FLORIDA, priority 2015, published 2018):
Entries after “also recorded” stand apart in the source; their conditions may differ.

What was measured:
endometrial VSMCs = experiment: αSMA and PCNA double-immunostaining of endometrium of oophorectomized guinea pigs (OVX-GPs); assay type: in vivo, guinea pig; conditions: 21-d time-release pellets, mean±SEM
Excerpt: After receiving written informed consent at New York University under Institutional Review Board approval, paraffin sections were derived from banked paired endometrial tissues obtained before and after Depo therapy by […] biopsy from each reproductive age woman with regular menstrual cycles during the secretory phase (n=6). Based on an established animal model for LAPC-induced AUB in humans (9), nulliparous adult female pigmented GPs (weighing 525-775 g) were used in experimental procedures conforming to National Health and Medical Research Council Guidelines of Australia and approved by the Animal Ethics Committee of The University of Western Australia. GPs (n=24) were subjected to bilateral OVX and given subcutaneous 21-d time-release pellets (Innovative Research of America) containing MPA (50 mg/d; n=6) or 17β-Estradiol (E2) (0.1 mg/d; n=6), both MPA and E2 (n=6), or no pellets (n=6). On day 20 of exposure to the pellets, GPs were killed with pentobarbital and uterine tissues fixed in 10% formalin and processed for paraffin embedding. In vitro experiments used aortic VSMCs from premenopausal women (n=2) (Life Technologies). Paraffin sections (5 μm) from paired pre- vs. post-Depo treated human or GP endometria were deparaffinized, boiled in citrate buffer (pH: 6.0) and then incubated in methanol containing 3% H2O2. Following 10% normal horse serum blocking (Vector Labs), slides were incubated overnight at 4° C. with mouse anti-PCNA monoclonal antibody (EMD Millipore). After several rinses in Tris-buffered saline containing 0.1% tween-20 (TBS-T; pH 7.6) slides were then incubated with biotinylated anti-mouse IgG (Vector Labs) for 30 min, then with a streptavidin-peroxidase complex (Elite ABC kit; Vector Labs) for 30 min and with diaminobenzidine (DAB; Vector Labs) for 3 min. […] Slides were counterstained by Hematoxylin and evaluated by histological scoring (HSCORE), as described previously (34). (See details for HSCORE evaluation for αSMA immunoreactivity and PCNA quantitation in SI Materials and Methods). Staining intensity for α-SMA was semiquantitatively evaluated by Q:1 HSCORE (1). […] An HSCORE value was determined for each specimen by using the formula HSCORE=ΣPi (i+1), where Pi is the percentage of stained cells in each intensity category (i.e., i=1, 2, or 3). Quantitation of PCNA immunostaining was determined by counting the number of PCNA^+ (brown) and PCNA^- cell nuclei (blue) in VSMCs (αSMA immunostained cells) and obtaining the ratio of numbers of PCNA^+ cell nuclei to total αSMA^+ cells. For each slide, three different fields were evaluated microscopically at 200× magnification. Slides were evaluated at different times by two investigators blinded to tissue source, and the average HSCORE or percentage of cells with PCNA^+ nuclei to total αSMA^+ cells used.

VSMCs = experiment: qRT-PCR of H19, TMEM119, RARRES1 and CCL2 mRNA in cultured VSMCs; assay type: cell-based, human; conditions: vs control
Protocol: (§1) VSMCs were thawed and cultured in medium 231 (M231; Life Technologies) with smooth muscle growth supplement (5% FBS; 2 ng/mL human basic fibroblast growth factor, 0.5 ng/mL human epidermal growth factor, 5 ng/mL heparin, 0.2 μg/mL insulin and 5 μg/mL BSA; Life Technologies) with 100 U/mL penicillin, 100 μg/mL streptomycin, 0.25 μg/mL fungizone. Confluent VSMCs were washed twice with 1×PBS to remove residual serum, passaged in 96-well or 6-well plates and incubated in parallel in M231 with 1% charcoal striped FBS with 0.1% ethanol (vehicle, control) or 10^−7 M MPA (Sigma-Aldrich) or 10^−7 M ETO (Organon) or 10^−7 M P4 (Sigma-Aldrich) for 15 min, 6, 48, and 72 h. VSMCs were then washed with ice-cold PBS and stored at −80° C. for further RNA and protein analyses.
For qRT-PCR, 500 ng total RNA from each treatment was reverse transcribed by using RETROscript kit (Ambion). qRT-PCR was performed using the TaqMan Gene Expression Assay Kits for H19, TMEM119, RARRES1, and CCL2 (TaqMan ID # Hs00262142_g1, Hs01938722_m1, Hs00161204_m1 and Hs00234140_m1, respectively; Life Technologies) as described previously (36). Expression of the target mRNAs was normalized to β-actin levels, and the 2^−ΔΔCT was used to calculate relative expression levels.

STAT1 = experiment: Western blot of total and phosphorylated STAT1 in VSMCs; assay type: cell-based, human; conditions: VSMCs treated for 15 min, vs control
Protocol: as §1
To confirm inhibition of STAT1 signaling in LAPC-treated VSMCs, detected by IPA, cell lysates from VSMCs were run in 10% Tris-HCl gel (Bio-Rad). Transfer onto membrane, blocking, washing, chemiluminescence development, and stripping/reprobing were performed as described previously (35). The membrane was incubated with antitotal STAT1 or antiphospho-STAT1 rabbit monoclonal antibodies (Cell Signaling) and then with peroxidase-conjugated goat anti-rabbit IgG (Vector Labs). Signals were developed by a chemiluminescence kit (GE Healthcare).

| Structure (SMILES) | PCNA+ endometrial VSMCs (endometrial VSMCs; n=6, control 11.2%±2.3) | αSMA HSCORE (endometrial VSMCs; n=6, control 135.2±26.0) | CCL2 mRNA levels (VSMCs) | H19 mRNA (VSMCs) | RARRES1 mRNA (VSMCs) | TMEM119 mRNA (VSMCs) | CCL2 mRNA levels (VSMCs; listed as WA) | phosphorylated levels of STAT1 (STAT1) | total STAT1 levels (STAT1) |
| --- | --- | --- | --- | --- | --- | --- | --- | --- | --- |
| CC(=O)O[C@]1(C(C)=O)CC[C@H]2[C@@H]3C[C@H](C)C4=CC(=O)CC[C@]4(C)[C@H]3CC[C@@]21C [MPA, medroxyprogesterone acetate] | 10.2%±2.8 | 83.50±9.0 | significant inhibition | up-regulated | down-regulated | up-regulated | down-regulated | partially reduced | not |
| C#C[C@]1(O)CC[C@H]2[C@@H]3CCC4=CC(=O)CC[C@@H]4[C@H]3C(=C)C[C@@]21CC [ETO, etonogestrel] | – | – | down-regulated; also recorded: significant inhibition | up-regulated | down-regulated | up-regulated | – | partially reduced | not |
